# Patent US20200345662A1, “MUSCULAR ATROPHY-INDUCING AGENT USING HYPOMETABOLISM-INDUCING SUBSTANCE T1AM, AND USE THEREOF IN TREATING MUSCULAR HYPERTROPHY” (UNIVERSITY INDUSTRY FOUNDATION, YONSEI […] CAMPUS, priority 2015, published 2020)
# What was measured:
# Akt1 = experiment: Immunoblotting analysis of p-Akt1 and Akt1 in C2C12 myotubes; format: cell-based; settings: T1AM-treated group vs control
# Procedure: (§1) C2C12 myoblasts were purchased from American Type Culture Collection (Rockville, Md., USA) and cultured in a DMEM medium containing 4,500 mg/L glucose supplemented with 10% fetal bovine serum (Hyclone, Logan, Utah, USA) and 1% antibiotics/antimycotics Gibco, Burlington, Ontario, Canada). The myoblasts were stored under conditions of 37° C. and 5% CO2. The myoblasts were grown on a 6-well culture plate for immunoblot analysis and measurement of diameters of myotubes. The myoblasts were maintained in each well for 5 days by replacing the medium with a differentiation medium (DMEM containing 2% horse serum and 1% antibiotics/antimycotics) at about 80% confluent state and induced to be differentiated into myotubes. The medium was replaced with a new medium every two days.
# (§2) The cells were obtained with a RIPA buffer, degraded by repeated suction through a 21 gauge needle, and the transferred to a 1.5 mL microtube. A sample was cultured on ice for 5 minutes and centrifuged at 13,000 rpm at 4° C. for 10 minutes. A supernatant was obtained with whole-cell soluble lysates and the protein concentration was determined through Bradford assay. To detect AMPK, phospho-AMPK (p-AMPK), FoxO1, p-FoxO1, FoxO3, p-FoxO3, Akt1, p-Akt1, S6K, p-S6K, MuRF1, MAFbx, HSP90, HSP72, HSP60, HSP27, αB-crystallin, and GAPDH, a total of 30 μg of proteins was electrophoresed on 8 to 10% SDS-PAGE.
# (§3) The proteins were electrophoretically transferred from the gel to a nitrocellulose membrane. The membrane reacted with a blocking buffer (1X TBS, 0.5% Tween-20 with 5% w/v nonfat dry milk) for 1 hour at room temperature and then washed with 10 mL TBST three times every 10 minutes. Thereafter, the membranes reacted with a primary antibody diluted appropriately with 10 mL TBST (1:500 to 1:10,000) overnight at 4° C. […] An immunocomplex was detected by the ECL system (GE Healthcare, Fairfield, Conn., USA) and the obtained bands were quantified by ImageJ 1.47t software (NIH, MD, USA). […]
# FoxO1 = experiment: Immunoblotting analysis of p-FoxO1 and FoxO1 in C2C12 myotubes; format: cell-based; settings: T1AM-treated group vs control
# Procedure: as §1, §2
# as §3, with “minutes.” for “minutes. Thereafter, the membranes reacted with a primary antibody diluted appropriately with 10 mL TBST (1:500 to 1:10,000) overnight at 4° C.”
# (§4) The cells on each 6-well plate were washed three times with 1× PBS and fixed with 4% paraformaldehyde for 30 minutes at room temperature. […] Fluorescent-labeled cells were detected with a Carl Zeiss LSM750 confocal microscope (Jena, Germany).
# HSP60 = experiment: Immunoblotting analysis of HSP60 in C2C12 myotubes; format: cell-based; settings: T1AM-treated group vs control
# Procedure: as §1
# (§5) The cells were obtained with a RIPA buffer, degraded by repeated suction through a 21 gauge needle, and the transferred to a 1.5 mL microtube. A sample was cultured on ice for 5 minutes and centrifuged at 13,000 rpm at 4° C. for 10 minutes. A supernatant was obtained with whole-cell soluble lysates and the protein concentration was determined through Bradford assay. […]
# (§6) The proteins were electrophoretically transferred from the gel to a nitrocellulose membrane. […] An immunocomplex was detected by the ECL system (GE Healthcare, Fairfield, Conn., USA) and the obtained bands were quantified by ImageJ 1.47t software (NIH, MD, USA). […]
# MAFbx = experiment: Immunoblotting analysis of MAFbx in C2C12 myotubes; format: cell-based; settings: T1AM treatment vs control
# Procedure: as §1, §5, §6
# 26S proteasome = experiment: Chymotrypsin-like activity of 26S proteasome, cell-based luminescence assay; settings: C2C12 myotubes, T1AM-treated group vs control
# Procedure: Two groups of myotubes were trypsinized and then washed with a fresh differentiation medium. Among three determinants of proteasome activities (trypsin-, chemotrypsin- and caspase-like activities), the chemotrypsin-like activity is regarded as representative of the protease capacity of the proteasome. The chemotrypsin-like activity was determined according to the manufacturer's protocol using a Promega Proteasome-Glo cell-based luminescence assay kit (Promega, Madison, Wis., USA) by approximately 7,500 cells measured by a cell counter (Biorad, Hercules, Calif., USA) in 50 μl of the differentiation medium. To confirm the specificity of the analysis, a partial sample containing the same number of cells was pretreated with a proteasome inhibitor, epoxomicin, at a concentration of 10 μM for 30 minutes. The chemotrypsin-like activity was measured by the same process and the result was used as a background signal for analysis. The luminescence was measured with a GloMax 20/20 Luminometer (Promega).
# αB-crystallin = experiment: Immunoblotting analysis of αB-crystallin in C2C12 myotubes; format: cell-based; settings: T1AM-treated group vs control
# Procedure: as §1, §5, §6
# FoxO3 = experiment: Immunoblotting analysis of p-FoxO3 and FoxO3 in C2C12 myotubes; format: cell-based; settings: T1AM-treated group vs control
# Procedure: as §1, §2
# as §3, with “minutes.” for “minutes. Thereafter, the membranes reacted with a primary antibody diluted appropriately with 10 mL TBST (1:500 to 1:10,000) overnight at 4° C.”
# as §4
# MuRF1 = experiment: Immunoblotting analysis of MuRF1 in C2C12 myotubes; format: cell-based; settings: T1AM-treated group vs control
# Procedure: as §1, §5, §6
# AMPK = experiment: Immunoblotting analysis of p-AMPK and AMPK in C2C12 myotubes; format: cell-based; settings: T1AM-treated group vs control
# Procedure: as §1, §2, §3
# S6K = experiment: Immunoblotting analysis of p-S6K and S6K in C2C12 myotubes; format: cell-based
# Procedure: as §1, §5, §6
# [1] = system: heat shock protein 72 (HSP72); experiment: Immunoblotting analysis of HSP72 in C2C12 myotubes; format: cell-based; settings: T1AM-treated group vs control
# Procedure: as §1, §5, §6
# C2C12 myotubes = experiment: Measurement of diameter (size) of C2C12 myotubes; format: cell-based; settings: 75 μM of T1AM for 6 hours
# Procedure: as §1
# To verify the effect of T1AM on the size of C2C12 myotubes, the cells were fixed with 4% paraformaldehyde and photographed at 200× magnification on an Axiovert 200 optical microscope. For analysis, the cells were divided into 9 fractions in order to randomly select the cells. The diameter of each myotube was measured using Image J software (NIH, Frederick, Md., USA).
# To determine whether T1AM induced muscular atrophy in C2C12 myotubes, cells were photographed under a phase contrast microscope (FIG. 1A) and the diameter was measured at 200× magnification (FIG. 1B).
compound,measurement,setting,value
"NCCc1ccc(Oc2ccc(O)cc2)c(I)c1 [T1AM, 3-iodothyronamine]","expression ratio of p-Akt1/Akt1, lower than control",Akt1,0.45 times
same,non-phosphorylation level of Akt1 between the two groups,Akt1,similar
same,phosphorylation level of Akt1 compared to the control,Akt1,significantly down-regulated
same,"expression ratio of p-FoxO1/FoxO1, lowered",FoxO1,0.66 times
same,phosphorylation level of FoxO1 between the two groups,FoxO1,similar
same,"total expression of FoxO1, higher than control",FoxO1,2.5 times
same,difference in HSP60 expression between the two groups,HSP60,not statistically significant
same,expression of MAFbx,MAFbx,not affected
same,"chymotrypsin-like activity of proteasome, higher than control",26S proteasome,1.5 times
same,"expression level of αB-crystallin, down-regulated compared to the control",αB-crystallin,0.63 times
same,"expression ratio of p-FoxO3/FoxO3, lower than control",FoxO3,0.39 times
same,"p-FoxO3 level, lowered",FoxO3,0.58 times
same,total expression of FoxO3 between T1AM-treated group and control,FoxO3,not different
same,"expression of MuRF1, higher than control",MuRF1,1.8 times
same,"AMPK phosphorylation, increase compared to the control",AMPK,2.7 times
same,"expression ratio of p-AMPK/AMPK, higher than control",AMPK,2.0 times
same,"total expression levels of AMPK, between the two groups",AMPK,similar
same,p-S6K level,S6K; T1AM treatment vs control,lowered
same,"expression ratio of p-S6K/S6K, lower than control",S6K; T1AM-treated group vs control,0.53 times
same,"expression level of HSP72, down-regulated compared to the control",[1],0.89 times
same,"size of myotube, decrease compared to vehicle control",C2C12 myotubes,0.13 times
